The values below are quoted from earlier work in patent publication US12414928B2, “Viral inactivation spray and gargling formulation” (priority 2021, dated 2025).

For series [1], the system named is coronavirus disease 2019 (COVID-19).
The next series deals with enveloped virus. The settings on record: in vitro, pH 4.0.

Take `Cl` [Hydrochloric Acid]: in series [1], the virus inactivation is 100%. Turning to `N=C(N)NCCC[C@H](N)C(=O)O` [L-Arginine], in the series on enveloped virus, the enveloped virus inactivation is recorded as 5 logs reduction.
